Laboratory results: publication PMC8347176, “Novel High Affinity Sigma-1 Receptor Ligands from Minimal Ensemble Docking-Based Virtual Screening” (International Journal of Molecular Sciences, 2021)
Counter-ions that a name gives are not always drawn. Like-named read-outs stand apart in the source and are kept apart here.

Tests used:
[1] = biological target: T1, sigma-1 receptor (S1R) (Cavia porcellus, UniProt Q60492); experiment: Sigma-1 receptor competitive radioligand binding assay with [3H](+)-pentazocine in guinea pig liver membranes
T1 construct: Guinea pig liver tissue preparation abundantly contains sigma-1 receptor as compared to other tissues; from tissue; host or cells: guinea pig liver membrane homogenate
Protocol: Male Wistar-Harlan rats (n = 10, 225–250 g) and guinea pigs (n = 10, 350–400 g) were handled according to the European Communities Council Directive (2010/63/EU) and to the Regulations on Animal Protection (40/2013. (II. 14.) Korm. r.) of Hungary. The researchers did the best effort to minimize the number of animals and their suffering. Preparation of guinea pig and rat liver homogenates was performed according to a previous method with a slight modification. Euthanized male guinea pig and rats were killed by decapitation, and their livers were removed rapidly. Minced fresh livers were homogenized in ice-cold homogenization buffer (10 mM NaH2PO4 pH 7.4, 0.32 M sucrose, 1 mM MgSO4, 10 μg/mL leupeptin, 1 μg/mL pepstatin A, 5 μg/mL soybean trypsin inhibitor, 0.5 mM EGTA, 1 mM AEBSF) using a Braun Teflon-glass homogenizer at the highest rpm for 30 s. The homogenate was centrifuged at 17,000× g for 10 min (4 °C). Supernatant was recentrifuged at 100,000× g for 60 min at 4 °C. The resulting pellet was resuspended in 10 volumes homogenization buffer, homogenized by a glass homogenizer and stored in aliquots at −80 °C. The protein content of the samples was measured by the Bradford method and samples were diluted in assay buffer to obtain the appropriate amount for the assay.
Binding assays for the sigma-1 receptor were performed at 37 °C for 90 min in a 50 mM Tris–HCl binding buffer (pH 8.0) in plastic tubes in a total assay volume of 1 mL that contained 0.5 mg/mL of a membrane protein. […] The incubation was terminated by diluting the samples with an ice-cold wash buffer (50 mM of Tris–HCl, pH 8.0), followed by repeated washing and rapid filtration through Whatman GF/B glass fiber filters (Whatman Ltd., Maidstone, UK) presoaked with 0.1% polyethyleneimine. Filtration was performed with a 24-well Brandel Cell Harvester (Gaithersburg, MD, USA). Filters were air-dried and immersed into Ultima Gold MV scintillation cocktail, and then radioactivity was measured with a TRI-CARB 2100TR liquid scintillation analyzer (Packard, Perkin Elmer, Waltham, MA, USA).
(§1) The results of the competition binding studies are reported as means ± S.E.M. of at least three independent experiments each performed in duplicate. In competition binding studies, the inhibitory constants (Ki) were calculated from the inflection points of the displacement curves using nonlinear least-square curve fitting and the Cheng–Prusoff equation, Ki = EC50/(1 + [ligand]/Kd). All data and curves were analyzed by GraphPad Prism 5.0 (San Diego, CA, USA).

[2] = biological target: T2, sigma-2 receptor (S2R) (Rattus norvegicus, UniProt Q5U3Y7); experiment: Sigma-2 receptor competitive radioligand binding assay with [3H]DTG in rat liver membranes, S1R masked with 100 nM (+)-pentazocine
T2 construct: from tissue; host or cells: rat (male Wistar-Harlan) liver membrane homogenate
T2 sequence (Q5U3Y7 1-176): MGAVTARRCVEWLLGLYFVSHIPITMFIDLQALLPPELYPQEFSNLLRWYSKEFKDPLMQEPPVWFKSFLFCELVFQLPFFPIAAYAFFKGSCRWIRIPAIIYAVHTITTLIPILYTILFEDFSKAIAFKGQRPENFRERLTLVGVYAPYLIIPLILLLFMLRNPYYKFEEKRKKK
Protocol: Male Wistar-Harlan rats (n = 10, 225–250 g) and guinea pigs (n = 10, 350–400 g) were handled according to the European Communities Council Directive (2010/63/EU) and to the Regulations on Animal Protection (40/2013. (II. 14.) Korm. r.) of Hungary. The researchers did the best effort to minimize the number of animals and their suffering. Preparation of guinea pig and rat liver homogenates was performed according to a previous method with a slight modification. Euthanized male guinea pig and rats were killed by decapitation, and their livers were removed rapidly. […] The protein content of the samples was measured by the Bradford method and samples were diluted in assay buffer to obtain the appropriate amount for the assay.
as §1

[3] = system: S1R; design: method as in PMID 16463398; conditions: cited from earlier work

T1 sequence (Q60492 whole entry): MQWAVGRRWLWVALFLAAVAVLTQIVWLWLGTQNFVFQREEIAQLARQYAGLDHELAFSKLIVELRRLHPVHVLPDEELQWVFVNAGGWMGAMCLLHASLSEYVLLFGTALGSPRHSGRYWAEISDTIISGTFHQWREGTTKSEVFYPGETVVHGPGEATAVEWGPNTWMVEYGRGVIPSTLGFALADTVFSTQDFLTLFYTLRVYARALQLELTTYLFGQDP

SMILES | Ki ([1]; read-out: Measured Ki) [nM] | further results
Cn1c2c(c3ccccc31)CCNC2CNC(=O)OCc1ccccc1 (stereo not shown) [L6, N-Benzyloxycarbonyl-(9-methyl-2,3,4,9-tetrahydro-1H-pyrido[3,4-b]indol-1-yl)methanamine] | 1040 | 
CCOc1cc2c(cc1OCC)[C@H]1[C@H](CSc3ccc(Cl)cc3)CN1CC2 (relative stereo) [L12, (1R*,9bR*)-1-{[(4-Chlorophenyl)thio]methyl}-7,8-diethoxy-1,4,5,9b-tetrahydro-2H-azeto[2,1a]-isoquinoline] | 3270 | 
NC(CC(=O)NCc1cccc(C(F)(F)F)c1F)c1ccccc1 (stereo not shown) [L2, 3-Amino-N-(2-fluoro-3-(trifluoromethyl)benzyl]-3-phenylpropanamide hydrochloride] | 91 | 
Cl.NC(CC(=O)NCc1cc(F)cc(C(F)(F)F)c1)c1ccccc1 (stereo not shown) [L4, 3-Amino-N-(3-fluoro-5-(trifluoromethyl)benzyl]-3-phenylpropanamide hydrochloride] | 420 | melting point: 180 to 182 °C
COCCCC/C(=N\OCCN)c1ccc(C(F)(F)F)cc1 [fluvoxamine, reference compound] |  | Ki ([1]; read-out: S1R Ki ± S.E.M.): 31 ± 3 nM; displacement of [3H]DTG (partial) [2]: 70–80%
COc1cc(CCN2CCN(CCCc3ccccc3)CC2)ccc1OCCF [fluoroethyl analog of S1R agonist SA4503] |  | KiS2R/KiS1R [3]: 14.1
CCOc1cc2c(cc1OCC)[C@H]1CCN[C@@H](c3ccc(N(C)C)cc3)N1CC2 (relative stereo) [L10, (4R*,11bR*)-9,10-Diethoxy-4-[4-(dimethylamino)phenyl]-1,3,4,6,7,11b-hexahydro-2H-pyrimido[6,1-a]isoquinoline] | 2150 | 
CC1(C)C2CC(O)C(O)(CNCc3ccccc3)CC21 [L7, (1S,3R,4R,6R)-3-(benzylamino)methyl)-7,7-dimethylbicyclo[4.1.0]heptane-3,4-diol] | 1380 | 
NN1C(=O)C2C3C=CC(C3)C2NC12CCN(Cc1ccccc1)CC2 (racemic) [L5, (±)-diendo-3′-amino-1-benzyl-5′,8′-methano-4′a,5′,8′,8′a-tetrahydrospiro[piperidine-4,2′(1′H)-quinazolin]-4′(3′H)-one] | 463 | 
COc1cc2c(cc1OC)C(CCNCc1ccccc1)NCC2 (stereo not shown) [L1, N-Benzyl-6,7-dimethoxy-1,2,3,4-tetrahydro-1-isoquinolineethanamine dihydrochloride] | 32 | 
CC(CN)C(=O)NCc1cccc(C(F)(F)F)c1F (stereo not shown) [L8, 3-Amino-N-(2-fluoro-3-(trifluoromethyl)benzyl]-2-methylpropanamide trifluoroacetate] | 1530 | 
CC(C)=CCN1CC[C@]2(C)c3cc(O)ccc3C[C@H]1[C@H]2C [(+)-pentazocine] |  | displacement of [3H]DTG (partial) [2]: 70–80%
O=C(NCC1NCCc2c1[nH]c1ccccc21)OCc1ccccc1 (stereo not shown) [L9, N-Benzyloxycarbonyl-(2,3,4,9-tetrahydro-1H-pyrido[3,4-b]indol-1-yl)methanamine] | 1720 | 
COc1ccc(OCC(O)CN2CCc3ccccc3C2)cc1 (stereo not shown) [L3, 1-[(4-Methoxyphenoxy)methyl]-2-(1,2,3,4-tetrahydroisoquinolin-2-yl)ethanol] | 110 | 
